In US6713506B2, “Tea polyphenol esters and analogs thereof for cancer prevention and treatment” (University of South Florida, priority 2000, dated 2004):

Tested on: p27 in MCF-7 tumors
Test: Nude mice bearing human breast MCF-7 tumors, biochemical end points
Assay type: in vivo
Settings: mice pre-fed or injected into the tumors
Excerpt: Treatment of drinking water with green tea, a green tea polyphenol extract or EGCG, or direct injection into tumors of a solution containing a green tea polyphenol extract or EGCG, inhibits breast or other tumor growth in nude mice. In (a) it is shown that antitumor activity of tea polyphenols correlates to their potency to inhibit the proteasome activity. All mice receive a 90-day slow-release subcutaneous (s.c.) estrogen pellet (Innovative Research) in the anterior flank 7 days before tumor inoculation. In Experiment 1, mice (5 per group) are pre-fed with a solution of EGCG, EGC, ECG, EC, a green tea extract (1, 10, and 50 mg/kg) or water three times per week for 2 weeks, followed by s.c. implanting human breast MCF-7 tumor cells in nude mice above the right and left flanks (10^7 cells per flank). When tumors in the control group reach ˜1000 mm^3 the experiment is terminated. […] Evaluation of the antitumor activity of tea polyphenols is determined by measuring the change in tumor size of the treated group compared to the control group. […] Levels of p27 and Bax protein in tumor tissues are measured by Western blotting and immunohistochemistry. […] Bax localization (by immunohistochemistry), processing of caspase-3, cleavage of PARP (by Western blotting) and apoptosis (by TUNEL) are then measured. […]

## O=C(O[C@@H]1Cc2c(O)cc(O)cc2O[C@@H]1c1cc(O)c(O)c(O)c1)c1cc(O)c(O)c(O)c1 [EGCG, (−)-epigallocatechin-3-gallate]
  p27 levels in tumors: Increased p27 levels
